Patent US10016440B2, “Methods of enhancing antibody-dependent cellular cytotoxicity” (VentiRx Pharmaceuticals, Inc., priority 2010, dated 2018)

Assays:
Type in all cases: cell-based, human
[1] = tested on: rituximab-coated HS-Sultan cells; test: Rituximab-mediated ADCC of HS-Sultan cells with PBMC from donors genotyped for FcgR polymorphisms; settings: for baseline ADCC (percent specific lysis): buffer control, E:T 50:1 (FIG. 4); for rituximab-mediated ADCC activity: unstimulated PBMC
Experimental: Percent specific lysis is shown for Rituxan-coated HS-Sultan cells incubated with PBMC effector cells at an E:T ratio of 50:1. PBMCs from a patient with the high affinity genotype FcgR2a131 H/H and FcgR3a V/V (solid rectangles) or a patient with the lower affinity genotype FcgR2a131 […] and FcgR3a V/F (open rectangles) were evaluated for ADCC after stimulation with buffer control (baseline) or stimulation with 500 nM ADCC enhancer.
ADCC is mediated through immune effector cells included NK cells that engage the Fc portion of the monoclonal antibody through specific receptors. Patients with single nucleotide polymorphisms in these receptors such as FcRgamma3a position 158 and FcRgamma2a position 131 have a poorer clinical prognosis presumably from poor ADCC due to a lower affinity of the receptor for the monoclonal antibody. […] To determine if this common polymorphism affects the baseline antibody-dependent cellular cytoxicity (ADCC) response and/or response to the ADCC enhancer molecule of the present invention (Compound VTX-2337), PBMCs from donors were genotyped for the two alleles encoding the F and V isoforms, respectively, and tested in vitro. We analyzed rituximab-mediated ADCC using unstimulated PBMC or VTX-2337-stimulated PBMC from 15 donors, including 10 donors with FF or FV phenotype and 5 donors with VV phenotype.
Blood was collected from healthy donors and PBMCs were isolated using a Ficoll gradient. PBMCs were activated by culturing them in the presence of 500 nM VTX-2337 at 37° C. in a humidified 5% CO2 incubator for 48 hours. Activated PBMCs were then incubated with rituximab-coated HS-Sultan cells loaded at a ratio of 100:1 for 4 hours. Lysis was determined by measuring release of the fluorescent dye Calcein AM from the HS-Sultan cells.

[2] = tested on: breast cancer cell line MDA-MB-231; test: Herceptin-mediated ADCC of MDA-MB-231 cells by PBMC effector cells (Calcein AM release); settings: PBMCs activated with the ADCC enhancer (FIG. 3)
Experimental: (§1) Human Peripheral blood mononuclear cells (PBMCs) were isolated by Ficoll™ density gradient centrifugation and resuspended in RPMI containing 2% heat-inactivated FBS. PBMCs at a concentration of 1 to 3 million cells per mL were incubated with 10-500 nM ADCC enhancer in a humidified CO2 incubator for 18-72 hrs. Activated PBMCs were then used as effector cells in NK and ADCC assays. PBMCs activated with the ADCC enhancer were tested for the ability to enhance killing of the NK sensitive target cell line K562 or various tumor cells coated with monoclonal antibodies. Target cells were labeled with the fluorescent dye Calcein AM for 1 hour at 37° C. in a dark humidified CO2 incubator. […] Activated effector cells and labeled target cells were incubated in 96-well tissue culture plates at for 4 hours at 37° C. in a dark humidified CO2 incubator in an assay buffer containing HBSS+Ca/Mg+5% FBS. […] Fluorecence was quantified with a fluorescent microtiter plate reader. The % specific lysis was calculated as (Sample fluorescence-spontaneous fluorescence)*100/(100% fluorescence-spontaneous). 100% fluorescence was determined from wells that contained labeled target cells and detergent such at 0.1% Tween-20 or Triton X-100. Spontaneous fluorescence was determined from wells that contained assay buffer and target cells but not effector cells.

[3] = tested on: breast cancer cell line SKBR3; test: Herceptin-mediated ADCC of SKBR3 cells by PBMC effector cells (Calcein AM release); settings: PBMCs activated with the ADCC enhancer (FIG. 3)
Experimental: as §1

| Compound | rituximab-mediated ADCC ([1]; PBMC stimulated with 500 nM VTX-2337 for 48 hours, low affinity FF/FV group, E:T 100:1 (FIG. 5)) | killing of Herceptin coated MDA-MB-231 targets [2] | killing of Herceptin coated SKBR3 targets [3] | baseline ADCC (percent specific lysis) ([1]; patient with high affinity genotype FcgR2a131 H/H and FcgR3a V/V) | baseline ADCC (percent specific lysis) ([1]; patient with lower affinity genotype FcgR2a131 A/A and FcgR3a V/F) | rituximab-mediated ADCC activity ([1]; FF/FV donors, E:T 100:1 (FIG. 5)) | rituximab-mediated ADCC activity ([1]; VV donors, E:T 100:1 (FIG. 5)) |
| --- | --- | --- | --- | --- | --- | --- | --- |
| CCCN(CCC)C(=O)C1=Cc2ccc(-c3ccc(C(=O)N4CCCC4)cc3)cc2N=C(N)C1 [ADCC enhancer, {2-amino-8-[4-(pyrrolidinylcarbonyl)phenyl]-(3H-benzo[f]azepin-4-yl)}-N,N-dipropylcarboxamide] | 40.0±4.1% | 40-60% | > 80% |  |  |  |  |
| Rituxan: anti-CD20 monoclonal antibody rituximab (Rituxan) |  |  |  | approximately 30% | 10% | 20.5±2.5 % specific lysis | 31.7±2.9 % specific lysis |
